We go through three compounds from US20030125325A1, “Pyrazolyl benzyl thioethers” (priority 2001, published 2003).

The nature of data set [1]: logP determination by HPLC (EEC directive 79/831 Annex V. A8). Type of data set: physicochemical. The settings on record: gradient method, acetonitrile/0.1% aqueous phosphoric acid, preparation examples. The procedure:
The logP values were determined in accordance with EEC directive 79/831 Annex V. A8 by HPLC (gradient method, acetonitrile/0.1% aqueous phosphoric acid) […]

The subject of another data set is Puccinia recondita. The experiment in a line: Puccinia test (wheat)/protective. It is filed as in vivo. The settings on record: protective, application rate 100 g/ha, evaluation 10 days after inoculation, 0% = control, 100% = no infection. The procedure:
Puccinia test (wheat)/protective
To produce a suitable preparation of active compound, 1 part by weight of active compound is mixed with the stated amounts of solvent and emulsifier, and the concentrate is diluted with water to the desired concentration.
To test for protective activity, young plants are sprayed with the preparation of active compound at the stated application rate. After the spray coating has dried, the plants are sprayed with a conidia suspension of Puccinia recondita. The plants remain in an incubation cabin at 20° C. and 100% relative atmospheric humidity for 48 hours.
The plants are then placed in a greenhouse at a temperature of about 20° C. and a relative atmospheric humidity of 80% to promote the development of rust pustules.
Evaluation is carried out 10 days after the inoculation. 0% means an efficacy which corresponds to that of the control, whereas an efficacy of 100% means that no infection is observed.

A word on the chromatographic logP: it is a lipophilicity value derived from retention on a column. Low values mean a more hydrophilic compound, high ones a more lipophilic compound. As for `CON=C(C1=NOCCO1)c1ccccc1CSc1ccn(-c2ccc(Cl)cc2)n1` [Example 1, [2-({[1-(4-chlorophenyl)-1H-pyrazol-3-yl]sulphanyl}methyl)phenyl](5,6-dihydro-1,4,2-dioxazin-3-yl)methanone O-methyloxime], the chromatographic logP in data set [1] was determined as 3.69. The compound also registered an efficacy in the data set on Puccinia recondita of at least 98%. For `CON=C(C(=O)OC)c1ccccc1CSc1ccn(-c2ccc(Br)cc2)n1` [Example 2, methyl [2-({[1-(4-bromophenyl)-1H-pyrazol-3-yl]sulphanyl}methyl)phenyl](methoxyimino)acetate], the chromatographic logP in data set [1] worked out at 4.07. `CNC(=O)C(=NOC)c1ccccc1CSc1ccn(-c2ccc(Br)cc2)n1` [Example 3, N-methyl-[2-( {[1-(4-bromophenyl)-1H-pyrazol-3-yl]sulphanyl}methyl)phenyl]-(methoxyimino)acetamide] came in with a chromatographic logP in data set [1] of 3.5.
